Experimental data taken from patent US20240010646A1, “Urea Co-Crystal of Apixaban, and Preparation Method Therefor” (CHENGDU EASTON BIOPHARMACEUTICALS CO., LTD., priority 2021, published 2024).
Values after ≈ are worked out from the molar mass of the structure shown. Like-named read-outs stand apart in the source and are kept apart here.

What was measured:
[1] = Stability test (high temperature, light irradiation, long-term and accelerated storage); assay type: physicochemical
[2] = In vivo pharmacokinetic test in rat, single oral administration, plasma LC/MS/MS; design: species or system SD rats; details: for AUClast / Cl_F_obs / Cmax / MRT / T1/2 / Tmax / AUC(0-t) / half-life: corn oil suspension, 4 mL/kg
Method: 18 SD rats with 9 male rats and 9 female rats, weighing 220-240 g, purchased by Chengdu Ensiweier Biotechnology Co., Ltd. from Hunan SJA Laboratory Animal Co., Ltd, License: SCXK (Xiang) 2019-0004.
After the test drugs were prepared into […] uniform suspensions with corn oil, they were immediately administered orally to rats at 4 mL/kg, and 0.1 mL of blood was sampled from the jugular vein before the administration and 15 min, 30 min, 1 h, 2 h, 3 h, 4 h, 5 h, 6 h, 7 h, 8 h and 24 h after the administration, placed in EDTA-K2 tubes and centrifuged at 3000 r/min for 10 min. The plasma was separated and stored by freezing at −80° C. in refrigerator.
50 μL of plasma was taken and evenly mixed with 5 μL of working solution or blank diluent, 150 μL of the internal-standard acetonitrile-containing precipitant was added thereto, which was shaken with vortex for 2 min, and centrifuged at 12000 r/min for 10 min. 2 μL of Supernatant was taken and mixed with 200 μL of pure water: acetonitrile (1:1), and then the resultant sample was injected with a volume of 3 μL for analysis.

[3] = Equilibrium solubility test (saturated solutions, external standard method); assay type: physicochemical
[4] = female rats, listed as The urea co-crystal A
[5] = male rats, listed as The urea co-crystal A
[6] = female rats, listed as Crystalline form N-1
[7] = female, Sprague-Dawley (SD), rat, plasma, po, 1.25 mg/kg, female rats
[8] = male, Sprague-Dawley (SD), rat, plasma, po, 1.25 mg/kg, male rats

COc1ccc(-n2nc(C(N)=O)c3c2C(=O)N(c2ccc(N4CCCCC4=O)cc2)CC3)cc1 [Co-crystal A]
Purity % ([1]; 25 ± 2° C., 60 ± 5% RH, 6 months): 99.92% | Purity % ([1]; 25 ± 2° C., 60 ± 5% RH, Start): 99.93% | Purity % ([1]; 40 ± 2° C., 75 ± 5% RH, 6 months): 99.92% | Purity % ([1]; 40 ± 2° C., 75 ± 5% RH, Start): 99.93% | Purity % ([1]; High Temperature (60° C.), 1 month): 99.92% | Purity % ([1]; High Temperature (60° C.), Start): 99.93% | Purity % ([1]; Light Irradiation, 1 month): 99.93% | Purity % ([1]; Light Irradiation, Start): 99.93% | Crystalline form stability ([1]; all study conditions): good crystalline form stability | Increase of bioavailability compared with crystalline form N-1 ([2]; female rats): 21% | Increase of bioavailability compared with the urea co-crystal IV from HEC Pharm Co., Ltd ([2]; female rats): 44.98% | AUClast [2, 4]: 33.636 ± 8.113 µg·h/mL | Cl_F_obs [2, 4]: 7.2 ± 1.9 mL/day/kg | Cmax [2, 4]: 4.653 ± 0.763 µg/mL | MRT [2, 4]: 5.55 ± 0.61 h | T1/2 [2, 4]: 4.49 ± 0.10 h | Tmax [2, 4]: 1.08 ± 0.72 h | Increase of bioavailability compared with crystal form N-1 ([2]; male rats): 29.36% | Increase of bioavailability compared with the urea co-crystal IV from HEC Pharm Co., Ltd ([2]; male rats): 49.94% | AUClast [2, 5]: 25.567 ± 14.447 µg·h/mL | Cl_F_obs [2, 5]: 10.8 ± 4.8 mL/day/kg | Cmax [2, 5]: 7.97 ± 4.475 µg/mL | MRT [2, 5]: 4.16 ± 0.41 h | T1/2 [2, 5]: 5.53 ± 2.98 h | Tmax [2, 5]: 1.00 ± 0.00 h | solubility ([3]; hydrochloric acid pH 1.0 (0.1N), 25° C.): 0.04862 mg/mL | solubility ([3]; hydrochloric acid pH 1.0 (0.1N), 37° C.): 0.05733 mg/mL | solubility ([3]; phosphate buffer pH 6.8, 37° C.): 0.04274 mg/mL | solubility ([3]; phosphate buffer, 25 °C, pH 6.8, aqueous buffer, thermodynamic from solid, phosphate buffer pH 6.8, 25° C., read-out: Solubility): 0.0372 mg/mL | solubility ([3]; pure water, 25° C.): 0.05578 mg/mL | solubility ([3]; pure water, 37° C.): 0.06798 mg/mL

COc1ccc(-n2nc(C(N)=O)c3c2C(=O)N(c2ccc(N4CCCCC4=O)cc2)CC3)cc1 [N-1, 1-(4-methoxyphenyl)-7-oxo-6-(4-(2-oxopiperidin-1-yl)phenyl)-4,5,6,7-tetrahydr o-1H-pyrazolo[3,4-c]pyridine-3-carboxamide, reference compound]
Cl_F_obs [2, 6]: 13.4 mL/day/kg | Tmax [2, 6]: 5.83 ± 3.75 h | AUC(0-t) [2, 7]: 27.8 ± 13.1 µg·h/mL | half-life [2, 7]: 6.83 h | Cmax ([2]; female, Sprague-Dawley (SD), rat, plasma, po, 1.25 mg/kg, female rats, read-out: Cmax): 2.57 ± 0.999 µg/mL | MRT ([2]; female, Sprague-Dawley (SD), rat, plasma, po, 1.25 mg/kg, female rats, read-out: MRT): 7.37 ± 1.79 h | Cl_F_obs ([2]; male rats, listed as Crystalline form N-1): 15.4 ± 7.68 mL/day/kg | AUC(0-t) [2, 8]: 19.8 ± 14 µg·h/mL | half-life [2, 8]: 5.05 ± 1.43 h | Cmax ([2]; male, Sprague-Dawley (SD), rat, plasma, po, 1.25 mg/kg, male rats, read-out: Cmax): 4.09 ± 3.25 µg/mL | MRT ([2]; male, Sprague-Dawley (SD), rat, plasma, po, 1.25 mg/kg, male rats, read-out: MRT): 4.78 ± 0.75 h | Tmax ([2]; male, Sprague-Dawley (SD), rat, plasma, po, 1.25 mg/kg, male rats, read-out: Tmax): 1 ± 0.87 h | solubility ([3]; hydrochloric acid (0.1N), 25 °C, pH 1, simulated gastric fluid, thermodynamic from solid, hydrochloric acid pH 1.0 (0.1N), 25° C., read-out: Solubility): 0.0314 mg/mL (≈ 68.4 µM) | solubility ([3]; hydrochloric acid (0.1N), 37 °C, pH 1, simulated gastric fluid, thermodynamic from solid, hydrochloric acid pH 1.0 (0.1N), 37° C., read-out: Solubility): 0.0384 mg/mL (≈ 83.6 µM) | solubility ([3]; phosphate buffer pH 6.8, 25° C.): 0.02209 mg/mL (≈ 48.1 µM) | solubility ([3]; phosphate buffer, 37 °C, pH 6.8, aqueous buffer, thermodynamic from solid, phosphate buffer pH 6.8, 37° C., read-out: Solubility): 0.0294 mg/mL (≈ 63.9 µM) | solubility ([3]; pure water, 25 °C, water, thermodynamic from solid, pure water, 25° C., read-out: Solubility): 0.0367 mg/mL (≈ 79.8 µM) | solubility ([3]; pure water, 37 °C, water, thermodynamic from solid, pure water, 37° C., read-out: Solubility): 0.0493 mg/mL (≈ 107 µM)
